{
  "source": "paper PMC7854658",
  "about": "“Structural basis for ligand recognition of the neuropeptide Y Y2 receptor” (Nature Communications, 2021)",
  "test_in_all_cases": "NPY-induced IP accumulation (IP-One), mutant",
  "format_in_all_cases": "cell-based",
  "key": {"Y2R mutant T308^7.36A": {"molecular_target": "T1, Y2R mutant T308^7.36A (Homo sapiens, UniProt P49146, T308A)", "T1 construct": "expressed in transfected cells; host or cells: HEK293", "T1 sequence (P49146 1-381 T308A)": "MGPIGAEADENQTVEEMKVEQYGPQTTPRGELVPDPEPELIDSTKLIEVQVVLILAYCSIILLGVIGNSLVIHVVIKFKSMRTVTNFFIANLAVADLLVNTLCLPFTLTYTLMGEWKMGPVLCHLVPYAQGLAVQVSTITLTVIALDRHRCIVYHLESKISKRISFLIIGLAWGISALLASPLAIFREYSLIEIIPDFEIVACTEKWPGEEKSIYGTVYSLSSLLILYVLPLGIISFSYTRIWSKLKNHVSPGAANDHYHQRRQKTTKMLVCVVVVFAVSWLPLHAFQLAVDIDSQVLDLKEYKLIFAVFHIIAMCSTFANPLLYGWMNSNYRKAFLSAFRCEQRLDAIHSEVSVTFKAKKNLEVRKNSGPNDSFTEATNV", "procedure": "(§1) The plasmid hY2R_eYFP_pVitro2 encoding the WT Y2R and a fluorophore for investigating the receptor localization was used as template for the generation of receptor point mutations as previously described. Mutagenesis PCR was performed using the Phusion High-Fidelity Polymerase (Thermo Fisher Scientific, Waltham, MA, USA). […] The preparations of the plasmid DNA were performed using the Wizard plus Mini or Midi DNA purification kit (Promega, Madison, WI, USA).\n(§2) To determine the contribution of residues to antagonist binding, IP-One accumulation assays (Cisbio, Codolet, France) were performed. HEK293 cells were seeded into six-well plates and transiently cotransfected with 3200 ng of receptor plasmid DNA and 800 ng of the chimeric G protein (Gα∆6qi4myr) to redirect the Gαi signaling pathway to the Gαq phospholipase C pathway. Transient transfection was carried out using Metafectene as transfection reagent according to the manufacturer’s protocol (Biontex, Munich, Germany) over night. The cells were then reseeded into white 384-well microplates (Greiner Bio-One, Kremsmünster, Austria) at a density of 15,000 cells per well and grown for additional 24 h.\n(§3) All dilutions were performed in HBSS containing 20 mM LiCl (stimulation buffer) and DMSO with a final concentration of 0.01%.\n(§4) To determine the amount of cellular IPs, the FRET acceptor (IP1-d2) and the FRET donor (anti-IP1-Cryptate) were reconstituted and diluted in lysis and detection buffer (1:20) as described in the manufacturer’s protocol. Three microliters of both solutions were added, and the cells were incubated on a tumbler for 60 min."}, "Y2R mutant L227^5.46A": {"molecular_target": "T2, Y2R mutant L227^5.46A (Homo sapiens, UniProt P49146, L227A)", "T2 construct": "expressed in transfected cells; host or cells: HEK293", "T2 sequence (P49146 1-381 L227A)": "T1 sequence (P49146 1-381 T308A) with L227A, A308T", "procedure": "as §1, §2, §3, §4"}, "Y2R mutant T111^2.65A": {"molecular_target": "T3, Y2R mutant T111^2.65A (Homo sapiens, UniProt P49146, T111A)", "T3 construct": "expressed in transfected cells; host or cells: HEK293", "T3 sequence (P49146 1-381 T111A)": "T1 sequence (P49146 1-381 T308A) with T111A, A308T", "procedure": "as §1, §2, §3, §4"}, "Y2R mutant S220^5.39A": {"molecular_target": "T4, Y2R mutant S220^5.39A (Homo sapiens, UniProt P49146, S220A)", "T4 construct": "expressed in transfected cells; host or cells: HEK293", "T4 sequence (P49146 1-381 S220A)": "T1 sequence (P49146 1-381 T308A) with S220A, A308T", "procedure": "as §1, §2, §3, §4"}, "Y2R mutant H285^6.52T": {"molecular_target": "T5, Y2R mutant H285^6.52T (Homo sapiens, UniProt P49146, H285T)", "T5 construct": "expressed in transfected cells; host or cells: HEK293", "T5 sequence (P49146 1-381 H285T)": "T1 sequence (P49146 1-381 T308A) with H285T, A308T", "procedure": "as §1, §2, §3, §4"}, "[1]": {"details": "1 μM antagonist, source data Fig. 3"}, "[2]": {"details": "EC50(NPY + 1 μM antagonist)/EC50(NPY)"}, "[3]": {"details": "EC50 ratio (WT)/EC50 ratio (mutant)"}},
  "note": "Substitutions are numbered along the chain they refer to. Several values for one entry are separate records, joined by “and”; a condition that tells them apart may be missing. Identical values can stand only once.",
  "data": [
    {"smiles": "N=C(N)NCCC[C@H](NC(=O)CC1(CC(=O)N2CCN(C3c4ccccc4NC(=O)c4ccccc43)CC2)CCCC1)C(=O)NCCn1c(=O)n(-c2ccccc2)n(-c2ccccc2)c1=O", "note": "(stereo partly shown) [BIIE0246]", "values": [
      {"measurement": "Average EC50 ratio", "setting": "Y2R mutant T308^7.36A; [1]", "result": 233.8},
      {"measurement": "EC50 ratio (individual experiments)", "setting": "Y2R mutant T308^7.36A; [1]", "result": "248.2 and 219.5"},
      {"measurement": "EC50 ratio", "setting": "Y2R mutant T308^7.36A; [2]", "result": "248 and 219"},
      {"measurement": "Ratio change (fold)", "setting": "Y2R mutant T308^7.36A; [3]", "result": "0.6 fold and 0.7 fold"},
      {"measurement": "Average EC50 ratio", "setting": "Y2R mutant L227^5.46A; [1]", "result": 27.7},
      {"measurement": "EC50 ratio (individual experiments)", "setting": "Y2R mutant L227^5.46A; [1]", "result": "31.4 and 24.0"},
      {"measurement": "EC50 ratio", "setting": "Y2R mutant L227^5.46A; [2]", "result": "31 and 24"},
      {"measurement": "Ratio change (fold)", "setting": "Y2R mutant L227^5.46A; [3]", "result": "5 fold and 7 fold"},
      {"measurement": "Average EC50 ratio", "setting": "Y2R mutant T111^2.65A; [1]", "result": 247.7},
      {"measurement": "EC50 ratio (individual experiments)", "setting": "Y2R mutant T111^2.65A; [1]", "result": "265.4 and 230.1"},
      {"measurement": "EC50 ratio", "setting": "Y2R mutant T111^2.65A; [2]", "result": "265 and 230"},
      {"measurement": "Ratio change (fold)", "setting": "Y2R mutant T111^2.65A; [3]", "result": "0.6 fold and 0.7 fold"},
      {"measurement": "Average EC50 ratio", "setting": "Y2R mutant S220^5.39A; [1]", "result": 502.4},
      {"measurement": "EC50 ratio (individual experiments)", "setting": "Y2R mutant S220^5.39A; [1]", "result": "515.1 and 489.7"},
      {"measurement": "EC50 ratio", "setting": "Y2R mutant S220^5.39A; [2]", "result": "515 and 490"},
      {"measurement": "Ratio change (fold)", "setting": "Y2R mutant S220^5.39A; [3]", "result": 0.3, "unit": "fold"},
      {"measurement": "Average EC50 ratio", "setting": "Y2R mutant H285^6.52T; [1]", "result": 2.7},
      {"measurement": "EC50 ratio (individual experiments)", "setting": "Y2R mutant H285^6.52T; [1]", "result": "3.5 and 1.9"},
      {"measurement": "Ratio change (fold)", "setting": "Y2R mutant H285^6.52T; [3]", "result": "45 fold and 84 fold"}
    ]}
  ]
}
